The target in one experiment is T1, human 5-HT1A receptor (Homo sapiens, UniProt P08908).
T1 construct: expressed in transfected cells; host or cells: Chinese hamster ovary cells (5-HT1A.CHO)
T1 sequence (P08908 1-422): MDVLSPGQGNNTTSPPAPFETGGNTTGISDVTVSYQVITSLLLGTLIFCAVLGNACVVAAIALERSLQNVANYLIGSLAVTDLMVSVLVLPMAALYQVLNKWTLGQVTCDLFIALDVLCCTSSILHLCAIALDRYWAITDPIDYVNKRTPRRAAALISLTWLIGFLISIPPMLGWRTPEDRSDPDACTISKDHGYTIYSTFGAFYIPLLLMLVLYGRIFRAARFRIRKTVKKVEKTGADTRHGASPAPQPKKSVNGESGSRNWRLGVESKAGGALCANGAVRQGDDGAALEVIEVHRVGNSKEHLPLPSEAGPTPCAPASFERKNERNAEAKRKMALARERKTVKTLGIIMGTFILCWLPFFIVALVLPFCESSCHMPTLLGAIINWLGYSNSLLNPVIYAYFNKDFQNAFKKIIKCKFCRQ
Kind of experiment: human 5-HT1A receptor binding, [3H]8-OH-DPAT radioligand, membranes of 5-HT1A.CHO cells. Conditions: for inhibition at 1 µM: 1 uM compound, value in parentheses, read-out: 5-HT1A % inh @ 1 uM. How it is done:
(§1) The PCR cloning of the human 5-HT1A receptor subtype from a human genomic library has been described previously by Chanda et al., Mol. Pharmacol., 43:516 (1993). A stable Chinese hamster ovary cell line expressing the human 5-HT1A receptor subtype (5-HT1A.CHO cells) was employed throughout this study. Cells were maintained in DMEM supplemented with 10% fetal calf serum, non-essential amino acids and penicillin/streptomycin.
Cells were grown to 95-100% confluency as a monolayer before membranes were harvested for binding studies. Cells were gently scraped from the culture plates, transferred to centrifuge tubes, and washed twice by centrifugation (2000 rpm for 10 min., 4° C.) in buffer (50 mM Tris; pH 7.5). The resulting pellets were aliquoted and maintained at -80° C. On the day of assay, the cells were thawed on ice, and resuspended in buffer. Studies were conducted using [^3 H]8-OH-DPAT as the radioligand. The binding assay was performed in 96 well microtiter plates in a final total volume of 250 μL of buffer. Comparison experiments were performed by using 7 concentrations of unlabelled drug and a final ligand concentration of 1.5 nM. Non-specific binding was determined in the presence of 10 μM 5HT. Saturation analysis was conducted by using [^3 H]8-OH-DPAT at concentrations ranging from 0.3-30 nM. Following a 30 minute incubation at room temperature, the reaction was terminated by the addition of ice cold buffer and rapid filtration using a M-96 Brandel Cell Harvester (Gaithersburg, Md.) through a GF/B filter presoaked for 30 minutes in 0.5% polyethyleneimine.

The next experiment has as its target T2, 5-HT1A cloned receptor (Homo sapiens, UniProt P08908).
T2 construct: expressed in transfected cells; host or cells: Chinese hamster ovary cells (5-HT1A.CHO)
T2 sequence (P08908 1-422): T1 sequence (P08908 1-422)
Description: [35S]-GTPγS binding assay, 5-HT1A cloned receptor membrane fragments. It is filed as biochemical. The settings on record: maximum agonist response defined by excess 8-OH-DPAT; value in parentheses; read-out: GTPgS % EMax.
Excerpt: as §1
The [^35 S]-GTPγS binding assay was similar to that used by Lazareno and Birdsall, Br. J. Pharmacol. 109:1120 (1993). Briefly, 5-HT1A cloned receptor membrane fragments (as used for 5-HT1A receptor binding assays) were stored at -70° C. When needed, membranes were rapidly thawed, centrifuged at 40,000×g for 10 minutes and resuspended at 4° C. for 10 minutes in assay buffer (25 mM HEPES, 3 mM MgCl2, 100 mM NaCl, 1 mM EDTA, 10 uM GDP, […], pH 8.0). These membranes were then incubated for 30 min at 30° C. with [^35 S]GTPgS (1 nM) in the presence of vehicle, test compound (one to eight concentrations), or excess 8-OH-DPAT to define maximum agronist response. All reactions were terminated by the addition of ice cold Tris buffer followed by rapid filtration using a Tom Tech® filtration device to separate bound from free [^35 S]GTPgS. Agonists produced an increase in the amount of [^35 S]GTPgS bound whereas antagonists produced no increase in binding. Bound radioactivity was counted and analyzed as above.
On the technique in general: GTPγS resists hydrolysis and so accumulates on activated G proteins.

The next experiment deals with T3, serotonin transporter (Rattus norvegicus, UniProt P31652).
T3 construct: frontal cortical membranes prepared from male Sprague-Dawley rats; from tissue; host or cells: rat (male Sprague-Dawley) frontal cortex membranes
Kind of experiment: affinity for the serotonin transporter (ST), 3H-paroxetine, rat frontal cortical membranes. The settings on record: 3H-paroxetine 0.1 nM, 60 min, 25° C. It is filed as binding, rat (male Sprague-Dawley). How it is done: A protocol similar to that used by Cheetham et al., Neuropharmacol., 32:737 (1993) was used to determine the affinity of compounds for the serotonin transporter. Briefly, frontal cortical membranes prepared from male Sprague-Dawley rats were incubated with ^3 H-parsoxetinc (0.1 nM) for 60 min at 25° C. All tubes also contained either vehicle, test compound (one to eight concentrations), or a saturating concentration of fluoxetine (10 μM) to define […]. All reactions were terminated by the addition of ice cold Tris buffer followed by rapid filtration using a Tom Tech filtration device to separate bound from free ^3 H-paroxetine. Bound radioactivity was quantitated using a Wallac 1205 Beta Plate® counter. Nonlinear regression analysis was used to determine IC50 values which were converted to Ki values using the method set forth in Cheng and Prusoff, Biochem. Pharmacol., 22:3099 (1973) ([…].

Where [1] appears, read: [3H]8-OH-DPAT, 1.5 nM, 5-HT1A.CHO membranes, read-out: 5-HT1A Ki.

Structures are written as SMILES. Like-named read-outs stand apart in the source and are kept apart here.

T3 sequence (P31652 whole entry): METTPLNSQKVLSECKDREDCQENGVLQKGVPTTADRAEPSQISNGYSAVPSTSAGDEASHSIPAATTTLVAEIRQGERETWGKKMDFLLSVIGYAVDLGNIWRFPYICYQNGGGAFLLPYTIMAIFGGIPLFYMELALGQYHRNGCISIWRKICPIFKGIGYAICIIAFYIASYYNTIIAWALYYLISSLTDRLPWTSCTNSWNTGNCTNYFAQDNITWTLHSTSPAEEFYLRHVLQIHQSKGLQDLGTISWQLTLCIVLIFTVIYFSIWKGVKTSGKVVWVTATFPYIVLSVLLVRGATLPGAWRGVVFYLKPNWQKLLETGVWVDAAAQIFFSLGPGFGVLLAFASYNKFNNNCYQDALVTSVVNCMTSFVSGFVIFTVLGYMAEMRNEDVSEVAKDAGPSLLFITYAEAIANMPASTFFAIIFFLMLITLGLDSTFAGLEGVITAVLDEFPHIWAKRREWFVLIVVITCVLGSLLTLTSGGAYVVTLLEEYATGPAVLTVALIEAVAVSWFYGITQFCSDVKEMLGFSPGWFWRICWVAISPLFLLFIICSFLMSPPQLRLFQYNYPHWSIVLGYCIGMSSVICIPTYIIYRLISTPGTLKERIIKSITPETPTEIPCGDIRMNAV

With `COc1ccc2c(c1)CN([C@H]1CC[C@@H](c3c[nH]c4ccc(C#N)cc43)CC1)CC2` [Example 1a, 3-[(1,4-cis)-4-(7-Methoxy-3,4-dihydro-1H-isoquinolin-2-yl)-cyclohexyl]-1H-indole-5-carbonitrile], the inhibition at 1 µM on human 5-HT1A receptor ([3H]8-OH-DPAT) came out at 26%.
As to `COc1ccc2c(c1)CN([C@H]1CC[C@H](c3c[nH]c4ccc(C#N)cc43)CC1)CC2` [Example 1b, 3-[(1,4-trans)-4-(7-Methoxy-3,4-dihydro-1H-isoquinolin-2-yl)-cyclohexyl]-1H-indole-5-carbonitrile], the inhibition at 1 µM at human 5-HT1A receptor ([3H]8-OH-DPAT) amounted to 48%.
Still for that read-out and setting: the same measure for `COc1cccc2c1CN([C@H]1CC[C@@H](c3c[nH]c4ccc(C#N)cc43)CC1)CC2` [Example 2a, 3-[(1,4-cis)-4-(8-Methoxy-3,4-dihydro-1H-isoquinolin-2-yl)-cyclohexyl]-1H-indole-5-carbonitrile]: 14%; for `COc1cccc2c1CN([C@H]1CC[C@H](c3c[nH]c4ccc(C#N)cc43)CC1)CC2` [Example 2b, 3-[(1,4-trans)-4-(8-Methoxy-3,4-dihydro-1H-isoquinolin-2-yl)-cyclohexyl]-1H-indole-5-carbonitrile]: 46%; for `COc1ccc2c(c1)CCN([C@H]1CC[C@@H](c3c[nH]c4ccc(C#N)cc43)CC1)C2` [Example 3a, 3-[(1,4-cis)-4-(6-Methoxy-3,4-dihydro-1H-isoquinolin-2-yl)-cyclohexyl]-1H-indole-5-carbonitrile]: 21%.
For orientation: Ki means a measure of affinity in units of concentration, obtained from inhibition or displacement. For orientation: Emax means the size of the effect at its maximum, as opposed to the concentration needed. On human 5-HT1A receptor, `COc1ccc2c(c1)CCN([C@H]1CC[C@H](c3c[nH]c4ccc(C#N)cc43)CC1)C2` [Example 3b, 3-[(1,4-trans)-4-(6-Methoxy-3,4-dihydro-1H-isoquinolin-2-yl)-cyclohexyl]-1H-indole-5-carbonitrile] displayed an inhibitory constant (Ki) of 300 nM. Besides, the Emax at 5-HT1A cloned receptor turned out to be 0%.
`COc1cccc2c1CCN([C@H]1CC[C@@H](c3c[nH]c4ccc(C#N)cc43)CC1)C2` [Example 4a, 3-[(1,4-cis)-4-(5-Methoxy-3,4-dihydro-1H-isoquinolin-2-yl)-cyclohexyl]-1H-indole-5-carbonitrile]: the inhibition at 1 µM at human 5-HT1A receptor ([3H]8-OH-DPAT) came out at 7%. For the same molecule, the Emax on 5-HT1A cloned receptor is 12%.
The like results for `COc1cccc2c1CCN([C@H]1CC[C@H](c3c[nH]c4ccc(C#N)cc43)CC1)C2` [Example 4b, 3-[(1,4-trans)-4-(5-Methoxy-3,4-dihydro-1H-isoquinolin-2-yl)-cyclohexyl]-1H-indole-5-carbonitrile] were, in that order, 47% and 33%.
In the case of `N#Cc1ccc2[nH]cc([C@H]3CC[C@@H](N4CCc5ccccc5C4)CC3)c2c1` [Example 5a, 3-[(1,4-cis)-4-(3,4-Dihydro-1H-isoquinolin-2-yl)-cyclohexyl]-1H-indole-5-carbonitrile], the inhibition at 1 µM at human 5-HT1A receptor ([3H]8-OH-DPAT) was 0%. The molecule further displayed a Ki on serotonin transporter of 1.3 nM.
As for `N#Cc1ccc2[nH]cc([C@H]3CC[C@H](N4CCc5ccccc5C4)CC3)c2c1` [Example 5b, 3-[(1,4-trans)-4-(3,4-Dihydro-1H-isoquinolin-2-yl)-cyclohexyl]-1H-indole-carbonitrile], the inhibition at 1 µM at human 5-HT1A receptor ([3H]8-OH-DPAT) was 10%.
Turning to `COc1cccc2c1CCN(CCCc1c[nH]c3ccc(F)cc13)C2` [Example 6, 2-[3-(5-Fluoro-1H-indol-3-yl)-propyl]-5-methoxy-1,2,3,4-tetrahydroisoquinoline], the results for the inhibition constant (Ki) on human 5-HT1A receptor (setting [1]) and on serotonin transporter were 243 nM and 1.9 nM, respectively. For the same molecule, at 5-HT1A cloned receptor, the Emax was 23%.
The like results for `COc1ccc2c(c1)CCN(CCCc1c[nH]c3ccc(F)cc13)C2` [Example 7, 2-[3-(5-Fluoro-1H-indol-3-yl)-propyl]-6-methoxy-1,2,3,4-tetrahydroisoquinoline] were, in that order, 288 nM, 1.4 nM and 100%.
On to `Fc1ccc2[nH]cc(CCCN3CCc4ccccc4C3)c2c1` [Example 8, 2-[3-(5-Fluoro-1H-indol-3-yl)-propyl]-1,2,3,4-tertrahydroisoquinoline], for which, at human 5-HT1A receptor ([3H]8-OH-DPAT), the inhibition at 1 µM worked out at 48%. In addition, at 5-HT1A cloned receptor, the maximal response (Emax) was 13%. The molecule also came in with a Ki on serotonin transporter of 4.85 nM.
